# Results from ChEMBL document CHEMBL4828721, “Substituted dienes prepared from betulinic acid - Synthesis, cytotoxicity, mechanism of action, and pharmacological parameters” (Eur J Med Chem, 2021).
# What was measured:
# [1] = test system: CCRF-CEM; assay: Cytotoxicity against human CCRF-CEM cells assessed as reduction in cell viability measured after 72 hrs by MTS assay; format: functional, cell-based
# [2] = test system: CEM-DNR; assay: Cytotoxicity against daunorubicin resistant human CEM-DNR cells assessed as reduction in cell viability measured after 72 hrs by MTS assay; format: functional, cell-based
# [3] = test system: HCT-116; assay: Cytotoxicity against human HCT-116 cells assessed as reduction in cell viability measured after 72 hrs by MTS assay; format: functional, cell-based; details: HCT-116, 72 h
# [4] = Cytotoxicity against human HCT116 p53-null cells assessed as reduction in cell viability measured after 72 hrs by MTS assay; format: functional, cell-based
# [5] = test system: K562; assay: Cytotoxicity against human K562 cells assessed as reduction in cell viability measured after 72 hrs by MTS assay; format: functional, cell-based; details: K562, 72 h
# [6] = Cytotoxicity against paclitaxel resistant human K562-Tax cells assessed as reduction in cell viability measured after 72 hrs by MTS assay; format: functional, cell-based
# [7] = test system: A549; assay: Cytotoxicity against human A549 cells assessed as reduction in cell viability measured after 72 hrs by MTS assay; format: functional, cell-based; details: A549, 72 h
# [8] = test system: U2OS; assay: Cytotoxicity against human U2OS cells assessed as reduction in cell viability measured after 72 hrs by MTS assay; format: functional, cell-based
# [9] = test system: BJ; assay: Cytotoxicity against human BJ cells assessed as reduction in cell viability measured after 72 hrs by MTS assay; format: cell-based
# [10] = test system: MRC5; assay: Cytotoxicity against human MRC5 cells assessed as reduction in cell viability measured after 72 hrs by MTS assay; format: cell-based; details: MRC5, 72 h
smiles,measurement,setting,value
C=C(/C=C/c1c(F)c(F)c(F)c(F)c1F)[C@@H]1CC[C@]2(C(=O)O)CC[C@]3(C)[C@H](CC[C@@H]4[C@@]5(C)CC[C@H](O)C(C)(C)[C@@H]5CC[C@]43C)[C@@H]12,IC50,[1],22.1 µM
same,IC50,[2],> 50 µM
same,IC50,[3],32.2 µM
same,IC50,[4],36.3 µM
same,IC50,[5],29.8 µM
same,IC50,[6],> 50 µM
same,IC50,[7],32.2 µM
same,IC50,[8],30.2 µM
same,IC50,[9],> 50 µM
same,IC50,[10],43.2 µM
C=C(C=O)[C@@H]1CC[C@]2(C(=O)O)CC[C@]3(C)[C@H](CC[C@@H]4[C@@]5(C)CC[C@H](O)C(C)(C)[C@@H]5CC[C@]43C)[C@@H]12,IC50,[1],0.8 µM
same,IC50,[2],3.8 µM
same,IC50,[3],1.9 µM
same,IC50,[4],1.9 µM
same,IC50,[5],3.4 µM
same,IC50,[6],1.3 µM
same,IC50,[7],> 50 µM
same,IC50,[8],1.3 µM
same,IC50,[9],6.7 µM
same,IC50,[10],2.6 µM
C=C(/C=C/c1ccc(C(=O)O)cc1)[C@@H]1CC[C@]2(C(=O)O)CC[C@]3(C)[C@H](CC[C@@H]4[C@@]5(C)CC[C@H](O)C(C)(C)[C@@H]5CC[C@]43C)[C@@H]12,IC50,[1],17.5 µM
same,IC50,[2],32 µM
same,IC50,[3],39 µM
same,IC50,[4],42.5 µM
same,IC50,[5],> 50 µM
same,IC50,[6],39.2 µM
same,IC50,[7],> 50 µM
same,IC50,[8],49 µM
same,IC50,[9],> 50 µM
same,IC50,[10],> 50 µM
C=C(/C=C/c1ccccc1C(F)(F)F)[C@@H]1CC[C@]2(C(=O)O)CC[C@]3(C)[C@H](CC[C@@H]4[C@@]5(C)CC[C@H](O)C(C)(C)[C@@H]5CC[C@]43C)[C@@H]12,IC50,[1],21.8 µM
same,IC50,[2],> 50 µM
same,IC50,[3],33 µM
same,IC50,[4],36.1 µM
same,IC50,[5],48.7 µM
same,IC50,[6],> 50 µM
same,IC50,[7],37 µM
same,IC50,[8],29.6 µM
same,IC50,[9],> 50 µM
same,IC50,[10],> 50 µM
C=C(/C=C/c1cccc(F)c1)[C@@H]1CC[C@]2(C(=O)O)CC[C@]3(C)[C@H](CC[C@@H]4[C@@]5(C)CC[C@H](O)C(C)(C)[C@@H]5CC[C@]43C)[C@@H]12,IC50,[1],11.7 µM
same,IC50,[2],23.1 µM
same,IC50,[3],23 µM
same,IC50,[4],21 µM
same,IC50,[5],21.6 µM
same,IC50,[6],21.9 µM
same,IC50,[7],28.7 µM
same,IC50,[8],27.7 µM
same,IC50,[9],41.5 µM
same,IC50,[10],32.1 µM
C=C(/C=C/c1cccc(C)c1)[C@@H]1CC[C@]2(C(=O)O)CC[C@]3(C)[C@H](CC[C@@H]4[C@@]5(C)CC[C@H](O)C(C)(C)[C@@H]5CC[C@]43C)[C@@H]12,IC50,[1],9.5 µM
same,IC50,[2],21.4 µM
same,IC50,[3],24.7 µM
same,IC50,[4],22.3 µM
same,IC50,[5],24.9 µM
same,IC50,[6],23.6 µM
same,IC50,[7],36.5 µM
same,IC50,[8],18.2 µM
same,IC50,[9],> 50 µM
same,IC50,[10],42.2 µM
C=C(/C=C/c1cc(OC)cc(OC)c1)[C@@H]1CC[C@]2(C(=O)O)CC[C@]3(C)[C@H](CC[C@@H]4[C@@]5(C)CC[C@H](O)C(C)(C)[C@@H]5CC[C@]43C)[C@@H]12,IC50,[1],10 µM
same,IC50,[2],13.7 µM
same,IC50,[3],17.3 µM
same,IC50,[4],20.8 µM
same,IC50,[5],22.2 µM
same,IC50,[6],16 µM
same,IC50,[7],19 µM
same,IC50,[8],22.3 µM
same,IC50,[9],47.6 µM
same,IC50,[10],29.2 µM
C=C(/C=C/c1ccncc1)[C@@H]1CC[C@]2(C(=O)O)CC[C@]3(C)[C@H](CC[C@@H]4[C@@]5(C)CC[C@H](O)C(C)(C)[C@@H]5CC[C@]43C)[C@@H]12,IC50,[1],5.9 µM
same,IC50,[2],20.5 µM
same,IC50,[3],35 µM
same,IC50,[4],30.6 µM
same,IC50,[5],43.4 µM
same,IC50,[6],20.6 µM
same,IC50,[7],46 µM
same,IC50,[8],29.7 µM
same,IC50,[9],> 50 µM
same,IC50,[10],> 50 µM
C=C(/C=C/c1ccccc1)[C@@H]1CC[C@]2(C(=O)O)CC[C@]3(C)[C@H](CC[C@@H]4[C@@]5(C)CC[C@H](O)C(C)(C)[C@@H]5CC[C@]43C)[C@@H]12,IC50,[1],6.5 µM
same,IC50,[2],30.2 µM
same,IC50,[3],35.5 µM
same,IC50,[4],39.5 µM
same,IC50,[5],40 µM
same,IC50,[6],25.3 µM
same,IC50,[7],41.8 µM
same,IC50,[8],24.2 µM
same,IC50,[9],> 50 µM
same,IC50,[10],> 50 µM
C=C(/C=C/c1ccccc1Cl)[C@@H]1CC[C@]2(C(=O)O)CC[C@]3(C)[C@H](CC[C@@H]4[C@@]5(C)CC[C@H](O)C(C)(C)[C@@H]5CC[C@]43C)[C@@H]12,IC50,[1],18.7 µM
same,IC50,[2],42.1 µM
same,IC50,[3],26.6 µM
same,IC50,[4],24.8 µM
same,IC50,[5],23.9 µM
same,IC50,[6],39.3 µM
same,IC50,[7],29.4 µM
same,IC50,[8],28.1 µM
same,IC50,[9],42.3 µM
same,IC50,[10],32.6 µM
C=C(/C=C/c1cccc(C(F)(F)F)c1)[C@@H]1CC[C@]2(C(=O)O)CC[C@]3(C)[C@H](CC[C@@H]4[C@@]5(C)CC[C@H](O)C(C)(C)[C@@H]5CC[C@]43C)[C@@H]12,IC50,[1],8 µM
same,IC50,[2],28.1 µM
same,IC50,[3],23.1 µM
same,IC50,[4],24.8 µM
same,IC50,[5],26.5 µM
same,IC50,[6],25.1 µM
same,IC50,[7],35.1 µM
same,IC50,[8],24.6 µM
same,IC50,[9],> 50 µM
same,IC50,[10],42.9 µM
C=C(/C=C/c1cccc(C(=O)O)c1)[C@@H]1CC[C@]2(C(=O)O)CC[C@]3(C)[C@H](CC[C@@H]4[C@@]5(C)CC[C@H](O)C(C)(C)[C@@H]5CC[C@]43C)[C@@H]12,IC50,[1],20.1 µM
same,IC50,[2],33.9 µM
same,IC50,[3],43.4 µM
same,IC50,[4],43.1 µM
same,IC50,[5],> 50 µM
same,IC50,[6],36.7 µM
same,IC50,[7],> 50 µM
same,IC50,[8],> 50 µM
same,IC50,[9],> 50 µM
same,IC50,[10],> 50 µM
C=C(/C=C/c1ccc(C)cc1)[C@@H]1CC[C@]2(C(=O)O)CC[C@]3(C)[C@H](CC[C@@H]4[C@@]5(C)CC[C@H](O)C(C)(C)[C@@H]5CC[C@]43C)[C@@H]12,IC50,[1],5.9 µM
same,IC50,[2],26.1 µM
same,IC50,[3],21.4 µM
same,IC50,[4],18.2 µM
same,IC50,[5],> 50 µM
same,IC50,[6],26.3 µM
same,IC50,[7],> 50 µM
same,IC50,[8],> 50 µM
same,IC50,[9],> 50 µM
same,IC50,[10],> 50 µM
C=C(/C=C/c1cccc(Br)c1)[C@@H]1CC[C@]2(C(=O)O)CC[C@]3(C)[C@H](CC[C@@H]4[C@@]5(C)CC[C@H](O)C(C)(C)[C@@H]5CC[C@]43C)[C@@H]12,IC50,[1],8.8 µM
same,IC50,[2],35.9 µM
same,IC50,[3],25.3 µM
same,IC50,[4],26.8 µM
same,IC50,[5],23.6 µM
same,IC50,[6],32.8 µM
same,IC50,[7],33.1 µM
same,IC50,[8],27.6 µM
same,IC50,[9],> 50 µM
same,IC50,[10],> 50 µM
C=C(/C=C/c1ccc(C(C)(C)C)cc1)[C@@H]1CC[C@]2(C(=O)O)CC[C@]3(C)[C@H](CC[C@@H]4[C@@]5(C)CC[C@H](O)C(C)(C)[C@@H]5CC[C@]43C)[C@@H]12,IC50,[1],45.6 µM
same,IC50,[2],> 50 µM
same,IC50,[3],> 50 µM
same,IC50,[4],> 50 µM
same,IC50,[5],> 50 µM
same,IC50,[6],> 50 µM
same,IC50,[7],> 50 µM
same,IC50,[8],45.1 µM
same,IC50,[9],> 50 µM
same,IC50,[10],> 50 µM
C=C(/C=C/c1cccc(C#N)c1)[C@@H]1CC[C@]2(C(=O)O)CC[C@]3(C)[C@H](CC[C@@H]4[C@@]5(C)CC[C@H](O)C(C)(C)[C@@H]5CC[C@]43C)[C@@H]12,IC50,[1],12.1 µM
same,IC50,[2],21.6 µM
same,IC50,[3],35.1 µM
same,IC50,[4],29.4 µM
same,IC50,[5],> 50 µM
same,IC50,[6],22.7 µM
same,IC50,[7],> 50 µM
same,IC50,[8],> 50 µM
same,IC50,[9],> 50 µM
same,IC50,[10],> 50 µM
C=C(/C=C/c1cccc([N+](=O)[O-])c1)[C@@H]1CC[C@]2(C(=O)O)CC[C@]3(C)[C@H](CC[C@@H]4[C@@]5(C)CC[C@H](O)C(C)(C)[C@@H]5CC[C@]43C)[C@@H]12,IC50,[1],12.4 µM
same,IC50,[2],25.3 µM
same,IC50,[3],37.5 µM
same,IC50,[4],35.5 µM
same,IC50,[5],> 50 µM
same,IC50,[6],24.3 µM
same,IC50,[7],48.8 µM
same,IC50,[8],29.3 µM
same,IC50,[9],> 50 µM
same,IC50,[10],45.1 µM
C=C(/C=C/c1ccc(F)c(Cl)c1)[C@@H]1CC[C@]2(C(=O)O)CC[C@]3(C)[C@H](CC[C@@H]4[C@@]5(C)CC[C@H](O)C(C)(C)[C@@H]5CC[C@]43C)[C@@H]12,IC50,[1],5.5 µM
same,IC50,[2],27.8 µM
same,IC50,[3],21.8 µM
same,IC50,[4],20.8 µM
same,IC50,[5],40.6 µM
same,IC50,[6],25.2 µM
same,IC50,[7],45.5 µM
same,IC50,[8],26.5 µM
same,IC50,[9],> 50 µM
same,IC50,[10],32.4 µM
